Laboratory results taken from patent publication US7332617B2, “Process for the preparation of docetaxel trihydrate” (Shanghai Desano Chemical Pharmaceutical Co., Ltd., priority 2003, dated 2008).

Columns and labels:
[1] = exposure in light (purity); type: physicochemical; conditions: exposed in light for 10 hours
Description: It is sensitive to light in some way. Shortening of the filtration time decreased the exposure time, thus the reduction of purity was avoided.

[2] = system: transferring breast cancer; conditions: cited from earlier work
[3] = stability in high temperature; type: physicochemical
Procedure: 2. Lower operation temperature (below 40° C.). As Docetaxel's stability is bad in high temperature, this will help to avoid any purity drop of Docetaxel in purification process.

[4] = stability test at 40° C., relative humidity 75%, 12 months; type: physicochemical; conditions: relative humidity of 75%
Procedure: The experiment conditions for testing the stability are: under temperature of 40° C., at relative humidity of 75%, 12 months. Within this period, the trihydrate compound remain no change.

[5] = according to Chinese patent 95193984.X; cited from earlier work

| SMILES | purity on exposure in light [1] | CR (Complete Resultful) ([2]; one research report) [%] | total chemotherapy efficiency of single Docetaxel ([2]; phase II clinical trial, patients who have received chemotherapy, generally 100 mgs/m^2, infusion, once per 3 weeks) [%] | stability in high temperature [3] | stability [4] | stability compared with anhydrous compound [5] |
| --- | --- | --- | --- | --- | --- | --- |
| CC(=O)O[C@@]12CO[C@@H]1C[C@H](O)[C@@]1(C)C(=O)[C@H](O)C3=C(C)[C@@H](OC(=O)[C@H](O)[C@@H](NC(=O)OC(C)(C)C)c4ccccc4)C[C@@](O)([C@@H](OC(=O)c4ccccc4)[C@H]21)C3(C)C [Docetaxel] | purity dropped | 4 | 47 | bad |  |  |
| CC(=O)O[C@@]12CO[C@@H]1C[C@H](O)[C@@]1(C)C(=O)[C@H](O)C3=C(C)[C@@H](OC(=O)[C@H](O)[C@@H](NC(=O)OC(C)(C)C)c4ccccc4)C[C@@](O)([C@@H](OC(=O)c4ccccc4)[C@H]21)C3(C)C [Docetaxel trihydrate, (2′R,3′S)-N-carboxy-3-phenylisoserine, N-tert-butyl ester, 13-ester with 5β,20-epoxy-1β,2α,4α,7β,10β,13α-hexahydroxytax-11-en-9-one 4-acetate-2-benzoate, trihydrate] |  |  |  |  | no change | more stable than its anhydrous compound |
